# Molecular target: T1, androgen receptor (AR) and bromodomain-containing protein 4 (BRD4) protein (Homo sapiens, UniProt O60885+P10275)
# T1 construct: endogenous in cells; host or cells: VCaP cells
# Assay: Ternary complex formation in VCaP cells (AR capture antibody ELISA)
# Format: cell-based
# Settings: FIG. 1
# Protocol: Exemplary compounds were tested for ability to form a ternary complex containing a test compound, androgen receptor (AR), and bromodomain-containing protein 4 (BRD4) protein.
# VCaP cells were cultured in ATCC DMEM medium supplemented with 10% ATCC fetal bovine serum, and 1% pen-strep (culture medium). 5000 cells were seeded in 100 μL of culture medium, per well in a clear 96-well poly-D-lysine coated plate. Plates were equilibrated to room temperature for 30 minutes. After equilibration, plates were incubated at 37° C. with 5% CO2 in a humidified tissue culture incubator. Black, opaque 96-well MaxiSorp plates were coated with 50 μL of a solution of androgen receptor antibody diluted in phosphate buffered saline (PBS). The coated plates were then quick-spun for 30 seconds before being sealed and placed in a fridge at 4° C. overnight. Test compounds were titrated in 100% DMSO the day before the experiment was performed and were left sealed in the dessicator overnight. QuantaRed™ Enhanced Chemifluorescent HRP Substrate Kit was taken out from 4° C. to warm up to room temperature. Plates coated with androgen receptor antibody were washed three times with 200 μL 1× Tris -Buffered Saline plus 0.1% Tween20 (TBST), then blocked with 200 μL 3% bovine serum albumin in TBST for approximately […] on a room temperature plate shaker at 500 rpm for 1 hour. […]
# T1 sequence (P10275 whole entry, other chains not shown): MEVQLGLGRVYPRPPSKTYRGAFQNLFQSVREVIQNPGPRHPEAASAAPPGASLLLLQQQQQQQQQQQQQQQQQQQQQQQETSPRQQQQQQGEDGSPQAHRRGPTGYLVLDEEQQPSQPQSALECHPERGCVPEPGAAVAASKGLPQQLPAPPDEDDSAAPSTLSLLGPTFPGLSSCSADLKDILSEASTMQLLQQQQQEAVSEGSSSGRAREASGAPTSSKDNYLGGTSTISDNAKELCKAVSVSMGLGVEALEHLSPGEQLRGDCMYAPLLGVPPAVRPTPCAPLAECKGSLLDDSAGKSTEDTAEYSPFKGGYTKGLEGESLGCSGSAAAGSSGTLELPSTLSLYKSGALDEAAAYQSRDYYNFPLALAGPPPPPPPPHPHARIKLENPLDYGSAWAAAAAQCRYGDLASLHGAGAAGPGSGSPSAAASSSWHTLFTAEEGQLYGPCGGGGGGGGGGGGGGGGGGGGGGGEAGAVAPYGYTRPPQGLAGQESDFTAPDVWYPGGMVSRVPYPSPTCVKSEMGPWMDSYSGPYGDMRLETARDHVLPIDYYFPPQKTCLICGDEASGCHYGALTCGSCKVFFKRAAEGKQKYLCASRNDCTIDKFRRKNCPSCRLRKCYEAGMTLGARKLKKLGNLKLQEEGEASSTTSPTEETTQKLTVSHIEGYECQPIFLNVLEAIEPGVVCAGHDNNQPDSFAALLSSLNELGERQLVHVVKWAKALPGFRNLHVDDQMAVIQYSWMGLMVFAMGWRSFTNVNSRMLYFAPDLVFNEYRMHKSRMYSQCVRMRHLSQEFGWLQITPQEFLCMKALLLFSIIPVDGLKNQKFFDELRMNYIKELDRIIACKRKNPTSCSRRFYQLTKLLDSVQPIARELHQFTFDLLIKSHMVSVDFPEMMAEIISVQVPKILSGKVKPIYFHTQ
smiles,measurement,value
"COc1cc(O[C@H]2C(C)(C)[C@H](NC(=O)c3cnc(N4CCC5(CC4)CC(Oc4ccc(C6=N[C@@H](Cc7ncco7)c7nnc(C)n7-c7sc(C)c(C)c76)cc4)C5)nc3)C2(C)C)ccc1C#N [II-5, N-[(1r,3r)-3-(4-cyano-3-methoxy-phenoxy)-2,2,4,4-tetramethyl-cyclobutyl]-2-[2-[4-[(9S)-4,5,13-trimethyl-9-(oxazol-2-ylmethyl)-3-thia-1,8,11,12-tetrazatricyclo[8.3.0.0^2,6]trideca-2 (6),4,7,10,12-pentaen-7-yl]phenoxy]-7-azaspiro[3.5]nonan-7-yl]pyrimidine-5-carboxamide]","ternary complex formation between test compound, androgen receptor, and BRD4",detected

# Reference: patent US12668599B2, “Heterobifunctional compounds and methods of treating disease” (Halda Therapeutics OpCo, Inc., priority 2023, dated 2026)
